The results in this text go back to ChEMBL document CHEMBL1125851, “Trans-esterification reactions yield novel masked phosphate derivatives of the anti-cancer agent araC” (Bioorg Med Chem Lett, 1991).

What is called inhibition is the percentage by which the read-out fell short of the control. The low end stands for a weak effect, the high end for a strong effect.

SMILES strings stand for the structures.

In this assay the test system is Nucleic Acid. The experiment in a line: The compound was tested for its ability to inhibit the incorporation of tritiated thymidine into mammalian epithelial cells (DNA) at 30 uM dose. Particulars: Epithelial cell. It counts as cell-based.
For the compound `COP(=O)(OC[C@H]1OC(n2ccc(N)nc2=O)[C@@H](O)[C@@H]1O)OCC(Cl)(Cl)Cl` (stereo partly drawn), the inhibition was found to be 22%.
In the case of `CCOP(=O)(OC[C@H]1OC(n2ccc(N)nc2=O)[C@@H](O)[C@@H]1O)OCC(Cl)(Cl)Cl` (single isomer, unassigned; form 1) it was 31%; in that of `Nc1ccn([C@@H]2O[C@H](CO)[C@@H](O)[C@@H]2O)c(=O)n1`, 83%.
Then `CCCOP(=O)(OC[C@H]1OC(n2ccc(N)nc2=O)[C@@H](O)[C@@H]1O)OCC(Cl)(Cl)Cl` (stereo partly drawn), with 40%; and `Nc1ccn(C2O[C@H](COP(=O)(OCC(Cl)(Cl)Cl)OCC(Cl)(Cl)Cl)[C@@H](O)[C@@H]2O)c(=O)n1` (stereo partly drawn), with 91%; and `CCCNP(=O)(OC[C@H]1OC(n2ccc(N)nc2=O)[C@@H](O)[C@@H]1O)OCC(Cl)(Cl)Cl` (stereo partly drawn), with 45%.
The compound `CCCCNP(=O)(OC[C@H]1OC(n2ccc(N)nc2=O)[C@@H](O)[C@@H]1O)OCC(Cl)(Cl)Cl` (stereo partly drawn) yielded an inhibition of 48%.
As to `CCOP(=O)(OC[C@H]1OC(n2ccc(N)nc2=O)[C@@H](O)[C@@H]1O)OCC(Cl)(Cl)Cl` (single isomer, unassigned; form 2), the inhibition was 30%.
